Key:
Type in all cases: functional
[1] = system: M14; test: Antiproliferative activity against human M14 cells assessed as cell viability at 10^-5 M incubated for 48 hrs by sulforhodamine B assay relative to control; conditions: M14, 48 h, read-out: Activity
[2] = system: MCF7; test: Antiproliferative activity against human MCF7 cells assessed as cell viability at 10^-5 M incubated for 48 hrs by sulforhodamine B assay relative to control; conditions: MCF7, 48 h, read-out: Activity
[3] = system: DU-145; test: Antiproliferative activity against human DU145 cells assessed as cell viability at 10^-5 M incubated for 48 hrs by sulforhodamine B assay relative to control; conditions: DU-145, 48 h, read-out: Activity
[4] = system: PC-3; test: Antiproliferative activity against human PC3 cells assessed as cell viability at 10^-5 M incubated for 48 hrs by sulforhodamine B assay relative to control; conditions: PC-3, 48 h, read-out: Activity
[5] = system: UACC-62; test: Antiproliferative activity against human UACC62 cells assessed as cell viability at 10^-5 M incubated for 48 hrs by sulforhodamine B assay relative to control; conditions: UACC-62, 48 h, read-out: Activity
[6] = system: HOP-92; test: Antiproliferative activity against human HOP92 cells assessed as cell viability at 10^-5 M incubated for 48 hrs by sulforhodamine B assay relative to control; conditions: HOP-92, 48 h, read-out: Activity
[7] = system: SNB-75; test: Antiproliferative activity against human SNB75 cells assessed as cell viability at 10^-5 M incubated for 48 hrs by sulforhodamine B assay relative to control; conditions: SNB-75, 48 h, read-out: Activity
[8] = system: SN12C; test: Antiproliferative activity against human SN12C cells assessed as cell viability at 10^-5 M incubated for 48 hrs by sulforhodamine B assay relative to control; conditions: read-out: Activity
[9] = system: MDA-MB-435; test: Antiproliferative activity against human MDA-MB-435 cells assessed as cell viability at 10^-5 M incubated for 48 hrs by sulforhodamine B assay relative to control; conditions: MDA-MB-435, 48 h, read-out: Activity
[10] = system: ACHN; test: Antiproliferative activity against human ACHN cells assessed as cell viability at 10^-5 M incubated for 48 hrs by sulforhodamine B assay relative to control; conditions: read-out: Activity
[11] = system: MOLT-4; test: Antiproliferative activity against human MOLT4 cells assessed as cell viability at 10^-5 M incubated for 48 hrs by sulforhodamine B assay relative to control; conditions: MOLT-4, 48 h, read-out: Activity
[12] = system: OVCAR-3; test: Antiproliferative activity against human OVCAR3 cells assessed as cell viability at 10^-5 M incubated for 48 hrs by sulforhodamine B assay relative to control; conditions: OVCAR-3, 48 h, read-out: Activity
[13] = system: A549; test: Antiproliferative activity against human A549 cells assessed as cell viability at 10^-5 M incubated for 48 hrs by sulforhodamine B assay relative to control; conditions: A549, 48 h, read-out: Activity
[14] = system: HT-29; test: Antiproliferative activity against human HT-29 cells assessed as cell viability at 10^-5 M incubated for 48 hrs by sulforhodamine B assay relative to control; conditions: HT-29, 48 h, read-out: Activity
[15] = system: OVCAR-4; test: Antiproliferative activity against human OVCAR4 cells assessed as cell viability at 10^-5 M incubated for 48 hrs by sulforhodamine B assay relative to control; conditions: OVCAR-4, 48 h, read-out: Activity
[16] = system: UO-31; test: Antiproliferative activity against human UO31 cells assessed as cell viability at 10^-5 M incubated for 48 hrs by sulforhodamine B assay relative to control; conditions: UO-31, 48 h, read-out: Activity
[17] = system: OVCAR-5; test: Antiproliferative activity against human OVCAR5 cells assessed as cell viability at 10^-5 M incubated for 48 hrs by sulforhodamine B assay relative to control; conditions: OVCAR-5, 48 h, read-out: Activity
[18] = system: U-251; test: Antiproliferative activity against human U251 cells assessed as cell viability at 10^-5 M incubated for 48 hrs by sulforhodamine B assay relative to control; conditions: U-251, 48 h, read-out: Activity
[19] = system: TK-10; test: Antiproliferative activity against human TK10 cells assessed as cell viability at 10^-5 M incubated for 48 hrs by sulforhodamine B assay relative to control; conditions: TK-10, 48 h, read-out: Activity
[20] = system: SNB-19; test: Antiproliferative activity against human SNB19 cells assessed as cell viability at 10^-5 M incubated for 48 hrs by sulforhodamine B assay relative to control; conditions: SNB-19, 48 h, read-out: Activity
[21] = system: SW-620; test: Antiproliferative activity against human SW620 cells assessed as cell viability at 10^-5 M incubated for 48 hrs by sulforhodamine B assay relative to control; conditions: SW-620, 48 h, read-out: Activity
[22] = system: NCI-H522; test: Antiproliferative activity against human NCI-H522 cells assessed as cell viability at 10^-5 M incubated for 48 hrs by sulforhodamine B assay relative to control; conditions: NCI-H522, 48 h, read-out: Activity
[23] = system: KM12; test: Antiproliferative activity against human KM12 cells assessed as cell viability at 10^-5 M incubated for 48 hrs by sulforhodamine B assay relative to control; conditions: KM12, 48 h, read-out: Activity
[24] = system: SK-OV-3; test: Antiproliferative activity against human SKOV3 cells assessed as cell viability at 10^-5 M incubated for 48 hrs by sulforhodamine B assay relative to control; conditions: SK-OV-3, 48 h, read-out: Activity
[25] = system: NCI-H23; test: Antiproliferative activity against human NCI-H23 cells assessed as cell viability at 10^-5 M incubated for 48 hrs by sulforhodamine B assay relative to control; conditions: NCI-H23, 48 h, read-out: Activity
[26] = system: HL-60(TB); test: Antiproliferative activity against human HL-60(TB) cells assessed as cell viability at 10^-5 M incubated for 48 hrs by sulforhodamine B assay relative to control; conditions: HL-60, 48 h, read-out: Activity
[27] = system: SF-268; test: Antiproliferative activity against human SF268 cells assessed as cell viability at 10^-5 M incubated for 48 hrs by sulforhodamine B assay relative to control; conditions: SF-268, 48 h, read-out: Activity
[28] = system: NCI-H322M; test: Antiproliferative activity against human NCI-H322M cells assessed as cell viability at 10^-5 M incubated for 48 hrs by sulforhodamine B assay relative to control; conditions: read-out: Activity
[29] = system: SF-539; test: Antiproliferative activity against human SF539 cells assessed as cell viability at 10^-5 M incubated for 48 hrs by sulforhodamine B assay relative to control; conditions: SF-539, 48 h, read-out: Activity
[30] = system: HCT-15; test: Antiproliferative activity against human HCT15 cells assessed as cell viability at 10^-5 M incubated for 48 hrs by sulforhodamine B assay relative to control; conditions: HCT-15, 48 h, read-out: Activity
[31] = system: T47D; test: Antiproliferative activity against human T47D cells assessed as cell viability at 10^-5 M incubated for 48 hrs by sulforhodamine B assay relative to control; conditions: read-out: Activity
[32] = system: LOX IMVI; test: Antiproliferative activity against human LOXIMVI cells assessed as cell viability at 10^-5 M incubated for 48 hrs by sulforhodamine B assay relative to control; conditions: read-out: Activity

O=C1NC2C(CC(O)C(O)C2O)c2cc3c(c(O)c21)OCCO3 (racemic)
viability at 10 µM [1]: -45.8% | viability at 10 µM [2]: -13.3% | viability at 10 µM [3]: -2.39% | viability at 10 µM [4]: -9.66% | viability at 10 µM [5]: -13.3% | viability at 10 µM [6]: -20.1% | viability at 10 µM [7]: -4.29% | viability at 10 µM [8]: -9.95% | viability at 10 µM [9]: 1.45% | viability at 10 µM [10]: -14.5% | viability at 10 µM [11]: -0.8% | viability at 10 µM [12]: -13% | viability at 10 µM [13]: -14.3% | viability at 10 µM [14]: -14.5% | viability at 10 µM [15]: -8.78% | viability at 10 µM [16]: -19.7% | viability at 10 µM [17]: 3% | viability at 10 µM [18]: -14.9% | viability at 10 µM [19]: -11.9% | viability at 10 µM [20]: -10.4% | viability at 10 µM [21]: 4.85% | viability at 10 µM [22]: -36.1% | viability at 10 µM [23]: -2.6% | viability at 10 µM [24]: -10.9% | viability at 10 µM [25]: -40.9% | viability at 10 µM [26]: -18.8% | viability at 10 µM [27]: -0.71% | viability at 10 µM [28]: -24.3% | viability at 10 µM [29]: -24.1% | viability at 10 µM [30]: -11.9% | viability at 10 µM [31]: -15.8% | viability at 10 µM [32]: -41.1%

CCCOc1cc2c(cc1OCC)C1CC(O)C(O)C(O)C1NC2=O (racemic)
viability at 10 µM [1]: 103% | viability at 10 µM [2]: 99% | viability at 10 µM [3]: 110% | viability at 10 µM [4]: 97.1% | viability at 10 µM [5]: 117% | viability at 10 µM [6]: 110% | viability at 10 µM [7]: 95.3% | viability at 10 µM [8]: 112% | viability at 10 µM [9]: 105% | viability at 10 µM [10]: 107% | viability at 10 µM [11]: 104% | viability at 10 µM [12]: 112% | viability at 10 µM [13]: 107% | viability at 10 µM [14]: 107% | viability at 10 µM [15]: 107% | viability at 10 µM [16]: 88.9% | viability at 10 µM [17]: 105% | viability at 10 µM [18]: 98.5% | viability at 10 µM [19]: 99% | viability at 10 µM [20]: 105% | viability at 10 µM [21]: 101% | viability at 10 µM [22]: 96.7% | viability at 10 µM [23]: 108% | viability at 10 µM [24]: 109% | viability at 10 µM [25]: 108% | viability at 10 µM [26]: 101% | viability at 10 µM [27]: 97.6% | viability at 10 µM [28]: 104% | viability at 10 µM [29]: 99.2% | viability at 10 µM [30]: 112% | viability at 10 µM [31]: 105% | viability at 10 µM [32]: 96.7%

CCOc1c(OC)cc2c(c1O)C(=O)NC1C2CC(O)C(O)C1O (racemic)
viability at 10 µM [1]: 105% | viability at 10 µM [2]: 92.1% | viability at 10 µM [3]: 109% | viability at 10 µM [4]: 100% | viability at 10 µM [5]: 93.1% | viability at 10 µM [6]: 85.2% | viability at 10 µM [7]: 93.5% | viability at 10 µM [8]: 104% | viability at 10 µM [9]: 108% | viability at 10 µM [10]: 103% | viability at 10 µM [11]: 92.4% | viability at 10 µM [12]: 102% | viability at 10 µM [13]: 94.7% | viability at 10 µM [14]: 100% | viability at 10 µM [15]: 107% | viability at 10 µM [16]: 92.9% | viability at 10 µM [17]: 98.7% | viability at 10 µM [18]: 96.7% | viability at 10 µM [19]: 93.9% | viability at 10 µM [20]: 99% | viability at 10 µM [21]: 107% | viability at 10 µM [22]: 92.3% | viability at 10 µM [23]: 104% | viability at 10 µM [24]: 98.1% | viability at 10 µM [25]: 107% | viability at 10 µM [26]: 100% | viability at 10 µM [27]: 102% | viability at 10 µM [28]: 103% | viability at 10 µM [29]: 97.7% | viability at 10 µM [30]: 102% | viability at 10 µM [31]: 92.8% | viability at 10 µM [32]: 98.1%

Source: ChEMBL document CHEMBL4346705, “(±)-trans-Dihydronarciclasine and (±)-trans-dihydrolycoricidine analogues modified in their ring A: Evaluation of their anticancer activity and a SAR study” (2019)
